According to patent publication US8263642B2, “Antimicrobial compounds and methods of use thereof” (Vanderbilt University, priority 2008, dated 2012):

How the values were obtained:
[1] = system: hrtAB-driven expression of the xylE reporter gene; assay: XylE reporter assay (hrtAB promoter-xylE), Newman; assay type: cell-based, Staphylococcus aureus; settings: for XylE (0.05): level of XylE induction at 0.05 uM of the compound; for XylE (0.5): level of XylE induction at 0.5 uM of the compound; for XylE (5.0): level of XylE induction at 5.0 uM of the compound; for XylE (50.0): level of XylE induction at 50.0 uM of the compound
Procedure: (§1) With reference to Table 1, “Luminescence” refers to the raw luminescence value obtained in a luminomter. “Control (82.5 nm)” refers to the luminescence value obtained from heme at 82.5 nM as a positive control in the same plate as the experimental. “% lum” is the percentage of luminescence induced by the compound as compared to the heme control in the same plate. […] All of these assays are described in the application. […] “N/T” indicates the test was not performed.
Compounds that activate HssRS-driven hrtAB expression in the luciferase-based screen can be subjected to two separate counter screens to confirm these compounds as active hits. First, compounds of interest can be tested for their ability to activate expression of hrtAB in the XylE expression assay described hereinbelow. This is an in vitro assay that measures hrtAB-driven expression of the xylE reporter gene. The XylE-based reporter assay utilizes slightly more manipulations than the primary luciferase-based screen. […] It should be appreciated that a shortcoming of this counter screen is that it measures reporter gene expression, which is a similar activity as that measured in the primary assay. To address this shortcoming, compounds that are positive in both XylE- and luciferase-based assays can be subjected to a second counter screen as described hereinbelow.
S. aureus strains harboring the appropriate reporter construct were inoculated into 500 μl of TSB containing 10 μg/ml chloramphenicol in 1.5 ml tubes. Cultures were grown O/N at 37° C. with shaking. Bacteria were pelleted by centrifugation and spent medium was aspirated. The pellet was washed once with 500 μl of 20 mM potassium phosphate, pH 7.6, and resuspended in 150 μl of 100 mM potassium phosphate buffer, pH 8.0, 10% (v/v) acetone, 25 μg/ml lysostaphin. After 20 minute incubation at 37° C. and 5 minute incubation on ice, samples were centrifuged at 20,000 g for 30 minutes at 4° C. 1-10 μl of supernatant was added to a 96-well plate and 200 μl of 100 mM potassium phosphate, pH 8.0, 0.2 mM pyrocatechol was added to each well. Formation of 2-hydroxymuconic semialdehyde was tracked by measuring the absorbance at 375 nm every minute for 30 minutes on a Varian MP 50 microplate reader. Protein concentration in samples was determined by BCA (Pierce). One unit of specific activity of XylE in a sample is defined as the formation of 1 nmol of 2-hydroxymuconic semialdehyde per minute per milligram of cellular protein at 30° C. (Chien, Y., Manna, A. C., Projan, S. J., and Cheung, A. L. 1999, “SarA, a global regulator of virulence determinants in Staphylococcus aureus, binds to a conserved motif essential for sar-dependent gene regulation. J. Biol. Chem. 274, 37169-37176).
The hrtAB intergenic region was fused to the xylE structural gene by PCR-SOE. In the first reaction, primer P1B:[…] and P2B:[…] were used to amplify the hrtAB intergenic region from S. aureus strain Newman genomic DNA. In the second PCR reaction primers P3B:[…] and P4B:[…] were used to amplify the xylE structural gene using pALC1639 template DNA (provided by Dr. Ambrose Cheung) and PCR product purified using a Qiagen gel extraction kit. For the PCRSOE reaction, a 1:300 dilution of purified reaction 1 and reaction 2 PCR products was mixed and amplified by PCR using […]. This yielded a construct in which the hrtAB intergenic region is fused to the xylE gene in such a manner that the position of the start codon for xylE corresponds to the position of the start codon for […] in the hrtAB locus. The hrtAB promoter-xylE fusion DNA was then subcloned into pOS1. As a control we also constructed a promoterless xylE vector. The xylE gene was amplified from pACL1639 template DNA using the primers P1C:[…] and P2C:[…] and then cloned into the pOS1 vector.

[2] = system: HssRS-dependent hrtAB expression; assay: Luminescence-based assay to monitor HssRS-dependent hrtAB expression (phrtABlux reporter), Newman; assay type: cell-based, Staphylococcus aureus; settings: Newman; for activation at 0.0825 µM: Staphylococcus aureus, NEWMAN, read-out: % Lumi, luminescence induced by the compound compared to the heme control (82.5 nM) in the same plate; for Luminescence: raw luminescence value obtained in a luminometer
Procedure: as §1
A hrtAB-driven expression system was created in the pXen vector system (Xenogen) (Francis, K. P., D. Joh, C. Bellinger-Kawahara, M. J. Hawkinson, T. F. Purchio, and P. R. Contag. 2000. Monitoring bioluminescent Staphylococcus aureus infections in living mice using a novel luxABCDE construct. Infect Immun 68:3594-3600). This vector contains a promoterless luxCDABE operon from Photorabdus luminescens which produces blue green light when expressed. The luxCDABE encodes for a fatty acid reductase (LuxCDE) that produces a long chain fatty aldehyde which, when combined with cellular flavin mononucleotide, is oxidized by a luciferase (LuxAB) to produce light. Therefore, this system is useful in that it bypasses the need for substrate addition and is capable of generating light in the absence of any added reagents. Furthermore, the luminescent signal produced by the combined activities of LuxAB and LuxCDE is of sufficient intensity to be visualized in unmanipulated intact bacteria.
To establish an assay that measures HssRS-dependent expression of luxCDABE, the promoter for hrtAB upstream of luxCDABE was cloned and transformed this vector (phrtABlux) into wildtype and ΔhssR S. aureus. A promoterless vector (plux) and a plasmid containing luxCDABE under the control of a constitutive promoter (psrtAlux) (Mazmanian, S. K., G. Liu, H. Ton-That, and O. Schneewind. 1999. “Staphylococcus aureus sortase, an enzyme that anchors surface proteins to the cell wall.” Science 285:760-763) were included as negative and positive controls, respectively. Initially, wildtype S. aureus harboring either plux, phrtABlux, or psrtAlux were plated on solid medium that either lacked heme or contained 4 μM heme. Only wildtype S. aureus containing psrtAlux produced light on solid media regardless of the presence or absence of heme. […] Light was not produced by bacteria containing plux in either condition.
To adapt this system for a HTS to measure ligand recognition by HssRS, luminescence of wildtype and ΔhssR harboring the above listed plasmids in liquid media with or without heme was measured. […] Taken together, these experiments establish a whole cell […] assay that can identify small molecule modifiers of HssRS. This screen, in some aspects, can identify molecules that can be used as molecular probes in structure-function analyses to determine the mechanism by which S. aureus sense host heme.
Upon staphylococcal exposure to heme, HssRS senses heme and activates expression of hrtAB. This process can be measured using a reporter assay that employs a vector encoding the light-producing luxCDABE operon under the control of the hrtAB promoter. This assay results in whole cell luminescence upon HssRS-dependent activation of hrtAB, forming the foundation for the development of an assay suitable for high-throughput screens for small molecule activators of HssRS.
To develop an automated HTS format, S. aureus wildtype and ΔhssR harboring reporter constructs (psrtAlux, phrtAlux, plux) can be grown for 15 hours at 37° C. in tryptic soy broth (TSB) containing 10 μg/ml chloramphenicol. The addition of chloramphenicol is useful to ensure that the staphylococci propagate the reporter plasmid upon cell division. Following growth, bacterial cultures can be normalized and 2×10^7 cells (approximately 2 μl) can be added to individual wells of black walled, clear bottomed, 96-well plates. […]

Structure (SMILES)	XylE (0.05) [1]	XylE (0.5) [1]	XylE (5.0) [1]	XylE (50.0) [1]	activation at 0.0825 µM [2] [%]	Luminescence [2]
CC1(C)CC(=O)C(=CNCc2ccc(F)cc2)C(=O)C1	0.07	0.09	0.9	0.06	120	1003
CSc1ccc(NC=C2C(=O)CC(C)(C)CC2=O)cc1	0.04	0.05	0.01	1	161	1347
C/C=C/C=N/Nc1nnc2c(n1)[nH]c1ccccc12	0.04	0.06	0.1	1	202	1696
O=C1c2ccccc2C(=O)C1C1=NNC(c2ccccc2)C1 (centres unmarked)	0.05	0.06	0.1	0.8	81.7	2680
COc1ccc(/N=c2\nc(-c3ccccc3)n(-c3ccc(C)cc3)s2)cc1	0.02	0.04	0	0	266	757
O=C(Nc1ccc(NC(=O)c2ccccc2)c(Cl)c1)c1ccccc1	0.06	0.05	0.07	0.02	102	291
Cc1cc(-c2ccc(N)cc2)nc2ccc3ccccc3c12	0.09	0.06	0.02	0.04	136	576
Cc1cccc(NC(=O)c2cc3ccccc3cc2O)c1	0.02	0.09	0.1	0.02	217	794
CC(/C=N/NC(=O)C1COc2ccccc2O1)=C\c1ccccc1 (centres unmarked)	0.07	0.04	0.2	0.05	139	507
Cc1cccc(NC(=S)N/N=C/c2cc(Br)ccc2O)c1	0.09	0.2	0	0	161	589
NS(=O)(=O)c1ccc(NC(=O)CCCOc2ccc(Cl)cc2Cl)cc1	0.03	0.05	3	0	45.6	325
O=C(Nc1ccccc1C(=O)Nc1ccc(Cl)cc1)c1ccccc1	0.05	0.08	0.08	0.06	92	309
COc1ccc(CN2CCCN(C)CC2)c(C)c1C	0	0	1	1	127	534
CCc1ccccc1NC(=O)C1CCCCC1C(=O)O (centres unmarked)	1	0.05	0.02	1	136	576
Brc1ccc(CN2CCN(c3ccccc3)CC2)o1	0.07	0.05	1	0.02	39.3	166
Oc1ccc(CCNC2CCCc3c2[nH]c2ccc(-c4ccccc4)cc32)cc1 (centres unmarked)	0.06	0.02	1	1	127	534
O=S(=O)(Nc1cc(Cl)ccc1Cl)c1ccc(Cl)cc1	0.02	0.07	0.5	0.1	146	618
COc1ccc(Cl)cc1NC(=O)Nc1ccc(Cl)cc1	1	0.03	0	0.03	180	586
O=C(/C=C/c1ccc([N+](=O)[O-])s1)Nc1ccc(I)cc1	0.09	4	5	6	107	678
Cc1cc(O)c(NC(=S)NC(=O)c2ccc(C(C)(C)C)cc2)cc1C	0.09	0.2	0.2	0.3	127	808
O=[N+]([O-])c1ccc(O)c(C2NN=C(Cc3ccccc3)S2)c1 (centres unmarked)	0.02	0.05	1	1	871	2805
NS(=O)(=O)c1ccc(Nc2nc(-c3ccc(Cl)cc3)cs2)cc1	0.04	1	1	0.02	–	4946
